From ChEMBL document CHEMBL1201862, “PubChem BioAssay data set” (2004) come the findings set out here.

Molecules are shown by their SMILES.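 Growth conditions: 96-well plates. Treatment: test compound, 48 hours, 5 concentrations. Analysis: linear interpolation between bracketing concentrations; unreached endpoints set to highest concentration. GI50: concentration for 50% inhibition of growth.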 The source made the active and inactive calls. No stated cut-off is given here; in the data, active = GI50 up to about 1.1 µM and inactive = higher. Bounds are passed on as bounds.

Some test systems named below: OVCAR-4; UACC-62; CAKI-1; NCI-H226; MDA-MB-231; T47D; UACC-257; PC-3; NCI-H23; HL-60; IGROV-1; NCI-H522; SK-MEL-5; OVCAR-8; 786-0; Malme-3M; SR; OVCAR-3; ACHN; NCI/ADR-RES.
Experiment in all cases: growth of human tumour cells (NCI), 48 h

For `CCOC(OCC)C(CC)[Se]c1ccccc1[N+](=O)[O-]` (configuration not stated), the GI50 in the assay with OVCAR-4 was > 55.5 µM (inactive); in the assay on UACC-62, 2.44 µM (inactive); in the assay on CAKI-1, 2.75 µM (inactive); with NCI-H226 it was 7.96 µM (inactive); in the assay on MDA-MB-231, 9.2 µM (inactive); in the assay with T47D it was 9.06 µM (inactive). Further, the GI50 with UACC-257 is 8.83 µM (inactive); in the assay with PC-3 it was 3.27 µM (inactive); with NCI-H23, 3.03 µM (inactive); with HL-60, 0.418 µM (active); in the assay with IGROV-1 it was 3.48 µM (inactive); in the assay with NCI-H522 it was 1.72 µM (inactive). Also, the GI50 is 2.42 µM (inactive) with SK-MEL-5; 4.48 µM (inactive) in the assay on OVCAR-8; 3.41 µM (inactive) in the assay with 786-0; 7.28 µM (inactive) in the assay with Malme-3M; 0.593 µM (active) in the assay with SR; 2.45 µM (inactive) in the assay on OVCAR-3. Also, the GI50 with ACHN was 11.3 µM (inactive).
With `CCCCn1c(C)c(C(=O)OCC)c2cc(OCc3ccc(C(=O)Nn4c(C)ccc4C)cc3)c(Br)cc21`, the GI50 in the assay on OVCAR-4, in the assay on UACC-62, in the assay with CAKI-1, with NCI-H226, with T47D and with UACC-257 was > 100 µM (inactive) throughout. The GI50 with PC-3, in the assay on NCI-H23, in the assay with HL-60, in the assay with IGROV-1, with NCI-H522 and in the assay on SK-MEL-5 was > 100 µM (inactive) throughout. In addition, the GI50 with OVCAR-8, with NCI/ADR-RES, in the assay with 786-0, in the assay on Malme-3M, with SR and in the assay with OVCAR-3 was > 100 µM (inactive) throughout. Moreover, in the assay with ACHN, the GI50 is > 100 µM (inactive).
Consider `CCOP(=O)(Nc1ccc(-c2ccc(N)cc2)cc1)OCC`, for which the GI50 in the assay on OVCAR-4, with UACC-62, in the assay with CAKI-1, in the assay with MDA-MB-231, in the assay on UACC-257 and in the assay with PC-3 was > 100 µM (inactive) throughout. Further, the GI50 in the assay on NCI-H23, in the assay with IGROV-1, with NCI-H522, with SK-MEL-5, in the assay with OVCAR-8 and in the assay on NCI/ADR-RES was > 100 µM (inactive) in each case. The GI50 with 786-0, in the assay with Malme-3M, in the assay on OVCAR-3 and with ACHN was > 100 µM (inactive) each time.
With `COc1ccc2c(n1)Sc1nc3ccccc3nc1N2`, the GI50 with OVCAR-4 is 67.3 µM (inactive); in the assay with UACC-62 it was 7.16 µM (inactive); in the assay on CAKI-1 it was 88.3 µM (inactive); in the assay on NCI-H226, 10.7 µM (inactive); with MDA-MB-231, 13.2 µM (inactive); with T47D, > 100 µM (inactive). For the same molecule, the GI50 in the assay on UACC-257 is > 100 µM (inactive); in the assay with PC-3, 89.5 µM (inactive); with NCI-H23, 17.9 µM (inactive); in the assay with IGROV-1 it was 5.92 µM (inactive); in the assay with NCI-H522 it was 78 µM (inactive); with SK-MEL-5, > 100 µM (inactive). Also, the GI50 in the assay on OVCAR-8 is 16.2 µM (inactive); in the assay on NCI/ADR-RES it was 24.7 µM (inactive); with 786-0, 26.8 µM (inactive); in the assay on Malme-3M, 29 µM (inactive); in the assay on OVCAR-3 it was 32.4 µM (inactive); with ACHN, 23.2 µM (inactive).
Take `CCN(CC)C(=O)CCCCCCCCC1CO1` (configuration not stated): the GI50 with OVCAR-4, in the assay on UACC-62, in the assay with CAKI-1, in the assay with NCI-H226, in the assay on MDA-MB-231 and in the assay on UACC-257 was > 100 µM (inactive) each time. Further, the GI50 was > 100 µM (inactive) in the assay on PC-3; > 100 µM (inactive) in the assay with NCI-H23; 21.1 µM (inactive) in the assay on HL-60; > 100 µM (inactive) in the assay on IGROV-1; > 100 µM (inactive) in the assay with NCI-H522; > 100 µM (inactive) in the assay with SK-MEL-5. Also, the GI50 is > 100 µM (inactive) with OVCAR-8; > 100 µM (inactive) in the assay with NCI/ADR-RES; > 100 µM (inactive) with 786-0; 81.3 µM (inactive) with Malme-3M; > 100 µM (inactive) in the assay with SR; > 100 µM (inactive) in the assay on OVCAR-3. Also, the GI50 in the assay with ACHN is > 100 µM (inactive).
On to `CCC(=O)Nc1ccc(/N=C/c2cccc(Oc3ccccc3)c2)cc1`, for which the GI50 in the assay with OVCAR-4 was 55.3 µM (inactive); in the assay on UACC-62, 95.7 µM (inactive); in the assay with CAKI-1, > 100 µM (inactive); in the assay on NCI-H226 it was 18.2 µM (inactive); in the assay with T47D, 91 µM (inactive); in the assay on PC-3, 64.4 µM (inactive). Also, the GI50 in the assay with NCI-H23 is > 100 µM (inactive); with HL-60, 26.7 µM (inactive); with IGROV-1, 63.4 µM (inactive); in the assay on NCI-H522, > 100 µM (inactive); with SK-MEL-5, 33 µM (inactive); with OVCAR-8 it was 22.3 µM (inactive). Also, the GI50 with NCI/ADR-RES was 42.3 µM (inactive); in the assay with 786-0, 42.4 µM (inactive); in the assay on Malme-3M it was > 100 µM (inactive); with SR, 16.2 µM (inactive); with OVCAR-3, 63.8 µM (inactive); in the assay with ACHN, > 100 µM (inactive).
For `O=[N+]([O-])C(=C1NCCN1)/C(Cl)=C(/Cl)N1CCOCC1`, the GI50 in the assay on OVCAR-4, with UACC-62, in the assay with CAKI-1, in the assay with NCI-H226, with MDA-MB-231 and in the assay with T47D was > 100 µM (inactive) throughout. Moreover, the GI50 in the assay on UACC-257, with PC-3, in the assay on NCI-H23, in the assay on OVCAR-8, in the assay on NCI/ADR-RES and in the assay with 786-0 was > 100 µM (inactive) throughout. In addition, the GI50 in the assay on Malme-3M, in the assay with OVCAR-3 and in the assay with ACHN was > 100 µM (inactive) in each case.
With `O=C(O)c1ccc(N/C(=C(/C(Cl)=C(Cl)Cl)[N+](=O)[O-])n2nnc3ccccc32)cc1`, the GI50 in the assay on OVCAR-4, in the assay on UACC-62, in the assay on CAKI-1, with NCI-H226, in the assay on MDA-MB-231 and in the assay on T47D was > 100 µM (inactive) throughout. Besides, the GI50 in the assay with UACC-257, in the assay with PC-3, with NCI-H23, in the assay on OVCAR-8, in the assay with NCI/ADR-RES and in the assay with 786-0 was > 100 µM (inactive) in each case. The GI50 with Malme-3M, with OVCAR-3 and with ACHN was > 100 µM (inactive) throughout.
`Cc1ccccc1/N=N/c1ccc(/N=N/c2c(O)ccc3ccccc23)c(C)c1` [SCARLET RED]: the GI50 with OVCAR-4, in the assay with UACC-62, in the assay on CAKI-1, in the assay on NCI-H226, in the assay with MDA-MB-231 and in the assay with T47D was > 100 µM (inactive) each time. Further, the GI50 in the assay with UACC-257, with PC-3, in the assay on NCI-H23, in the assay on IGROV-1, in the assay on NCI-H522 and in the assay on SK-MEL-5 was > 100 µM (inactive) each time. Also, the GI50 with OVCAR-8, in the assay on NCI/ADR-RES, with 786-0, with Malme-3M, in the assay on OVCAR-3 and in the assay with ACHN was > 100 µM (inactive) throughout.
As to `O=C1NC2=NN=C(c3ccc(Br)cc3)CN2NC12c1ccccc1-c1ccccc12`, the GI50 in the assay with OVCAR-4, with UACC-62, with CAKI-1, in the assay on NCI-H226, with MDA-MB-231 and in the assay with UACC-257 was > 100 µM (inactive) each time. Moreover, the GI50 in the assay with PC-3, with NCI-H23, in the assay on IGROV-1, in the assay with NCI-H522, in the assay on SK-MEL-5 and in the assay with OVCAR-8 was > 100 µM (inactive) throughout. Also, the GI50 with NCI/ADR-RES is > 100 µM (inactive); in the assay with 786-0 it was > 100 µM (inactive); with Malme-3M, > 100 µM (inactive); with SR it was 69.2 µM (inactive); in the assay with OVCAR-3 it was > 100 µM (inactive); with ACHN it was > 100 µM (inactive).
Regarding `COc1ccc(Nc2nc(NNC(=O)Cc3ccccc3)nc(NNC(=O)c3ccncc3)n2)cc1`, the GI50 is > 10 µM (inactive) with OVCAR-4; 1.95 µM (inactive) with UACC-62; > 10 µM (inactive) in the assay with CAKI-1; > 10 µM (inactive) in the assay on MDA-MB-231; > 10 µM (inactive) in the assay on T47D; > 10 µM (inactive) in the assay on UACC-257. In addition, the GI50 with NCI-H23, with IGROV-1, in the assay with NCI-H522, in the assay on SK-MEL-5, in the assay on OVCAR-8 and in the assay with NCI/ADR-RES was > 10 µM (inactive) throughout. Besides, the GI50 in the assay with 786-0, in the assay with Malme-3M, in the assay with SR, in the assay with OVCAR-3 and in the assay on ACHN was > 10 µM (inactive) throughout.
